# Experimental data reported in ChEMBL document CHEMBL1201862, “PubChem BioAssay data set” (2004).
# Active and inactive are the calls of the source.
# Legend:
# [1] = biological target: T1, Hexokinase-1 (Homo sapiens, UniProt P19367); assay: SAR analysis of small molecule inhibitors of hexokinase domain containing I (HKDC1) in the hexokinase 1 selectivity assay. [Related pubchem assays (depositor defined):AID493160, AID493190]; type: functional
# T1 sequence (P19367 whole entry): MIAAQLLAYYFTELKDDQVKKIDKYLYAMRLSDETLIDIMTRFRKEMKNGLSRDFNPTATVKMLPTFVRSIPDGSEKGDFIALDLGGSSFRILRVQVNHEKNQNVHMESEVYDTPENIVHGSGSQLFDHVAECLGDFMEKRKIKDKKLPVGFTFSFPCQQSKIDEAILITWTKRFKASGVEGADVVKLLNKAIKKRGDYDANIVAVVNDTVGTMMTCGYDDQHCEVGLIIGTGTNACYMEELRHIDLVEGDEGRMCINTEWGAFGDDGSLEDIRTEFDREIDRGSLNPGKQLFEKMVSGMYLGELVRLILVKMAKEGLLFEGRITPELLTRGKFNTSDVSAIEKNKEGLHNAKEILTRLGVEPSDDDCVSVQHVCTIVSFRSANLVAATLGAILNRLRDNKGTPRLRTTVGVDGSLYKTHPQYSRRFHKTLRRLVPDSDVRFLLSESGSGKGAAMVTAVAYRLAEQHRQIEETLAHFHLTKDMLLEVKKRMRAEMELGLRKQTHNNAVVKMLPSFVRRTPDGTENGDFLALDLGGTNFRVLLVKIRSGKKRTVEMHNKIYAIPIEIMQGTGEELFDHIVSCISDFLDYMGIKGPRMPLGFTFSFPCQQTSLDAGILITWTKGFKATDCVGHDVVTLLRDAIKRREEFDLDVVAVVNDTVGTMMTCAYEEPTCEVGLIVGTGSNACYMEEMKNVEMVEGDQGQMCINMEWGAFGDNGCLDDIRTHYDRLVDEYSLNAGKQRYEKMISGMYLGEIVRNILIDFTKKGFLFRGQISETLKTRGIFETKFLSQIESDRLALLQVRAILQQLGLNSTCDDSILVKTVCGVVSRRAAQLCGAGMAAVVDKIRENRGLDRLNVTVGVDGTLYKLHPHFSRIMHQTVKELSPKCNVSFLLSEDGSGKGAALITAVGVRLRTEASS
# [2] = biological target: T2, Hexokinase HKDC1 (Homo sapiens, UniProt Q2TB90); assay: SAR analysis of small molecule inhibitors of hexokinase domain containing I (HKDC1). [Related pubchem assays (depositor defined):AID493160, AID493190]; type: functional
# T2 sequence (Q2TB90 whole entry): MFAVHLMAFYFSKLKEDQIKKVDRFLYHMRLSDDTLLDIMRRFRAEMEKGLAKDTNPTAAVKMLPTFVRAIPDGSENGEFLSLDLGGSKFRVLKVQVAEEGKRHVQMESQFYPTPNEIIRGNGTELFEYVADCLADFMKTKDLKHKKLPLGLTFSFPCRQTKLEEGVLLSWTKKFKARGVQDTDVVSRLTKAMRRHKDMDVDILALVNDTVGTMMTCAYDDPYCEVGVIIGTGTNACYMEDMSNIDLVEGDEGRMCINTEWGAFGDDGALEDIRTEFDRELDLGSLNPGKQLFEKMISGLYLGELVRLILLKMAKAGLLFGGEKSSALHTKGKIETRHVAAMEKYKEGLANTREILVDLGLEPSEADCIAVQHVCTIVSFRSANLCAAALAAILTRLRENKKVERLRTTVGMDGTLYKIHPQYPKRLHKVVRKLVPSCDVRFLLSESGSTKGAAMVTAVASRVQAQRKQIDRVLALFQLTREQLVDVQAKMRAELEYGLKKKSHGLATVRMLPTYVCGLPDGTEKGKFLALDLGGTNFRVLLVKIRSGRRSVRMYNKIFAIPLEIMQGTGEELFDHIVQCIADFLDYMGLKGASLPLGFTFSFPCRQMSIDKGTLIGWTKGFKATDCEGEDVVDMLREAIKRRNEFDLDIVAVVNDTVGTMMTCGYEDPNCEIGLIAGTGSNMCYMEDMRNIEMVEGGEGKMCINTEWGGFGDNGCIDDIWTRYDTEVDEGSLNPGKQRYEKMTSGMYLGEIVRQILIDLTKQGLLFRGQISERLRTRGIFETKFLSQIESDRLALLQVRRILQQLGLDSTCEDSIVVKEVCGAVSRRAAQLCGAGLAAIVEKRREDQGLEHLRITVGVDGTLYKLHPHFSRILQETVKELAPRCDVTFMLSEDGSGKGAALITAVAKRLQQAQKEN
# [3] = biological target: T3, Phospholipase D1 (Homo sapiens, UniProt Q13393); assay: PLD1 purified enzyme concentration response. [Related pubchem assays (depositor defined):AID588854]; type: functional
# T3 sequence (Q13393 whole entry): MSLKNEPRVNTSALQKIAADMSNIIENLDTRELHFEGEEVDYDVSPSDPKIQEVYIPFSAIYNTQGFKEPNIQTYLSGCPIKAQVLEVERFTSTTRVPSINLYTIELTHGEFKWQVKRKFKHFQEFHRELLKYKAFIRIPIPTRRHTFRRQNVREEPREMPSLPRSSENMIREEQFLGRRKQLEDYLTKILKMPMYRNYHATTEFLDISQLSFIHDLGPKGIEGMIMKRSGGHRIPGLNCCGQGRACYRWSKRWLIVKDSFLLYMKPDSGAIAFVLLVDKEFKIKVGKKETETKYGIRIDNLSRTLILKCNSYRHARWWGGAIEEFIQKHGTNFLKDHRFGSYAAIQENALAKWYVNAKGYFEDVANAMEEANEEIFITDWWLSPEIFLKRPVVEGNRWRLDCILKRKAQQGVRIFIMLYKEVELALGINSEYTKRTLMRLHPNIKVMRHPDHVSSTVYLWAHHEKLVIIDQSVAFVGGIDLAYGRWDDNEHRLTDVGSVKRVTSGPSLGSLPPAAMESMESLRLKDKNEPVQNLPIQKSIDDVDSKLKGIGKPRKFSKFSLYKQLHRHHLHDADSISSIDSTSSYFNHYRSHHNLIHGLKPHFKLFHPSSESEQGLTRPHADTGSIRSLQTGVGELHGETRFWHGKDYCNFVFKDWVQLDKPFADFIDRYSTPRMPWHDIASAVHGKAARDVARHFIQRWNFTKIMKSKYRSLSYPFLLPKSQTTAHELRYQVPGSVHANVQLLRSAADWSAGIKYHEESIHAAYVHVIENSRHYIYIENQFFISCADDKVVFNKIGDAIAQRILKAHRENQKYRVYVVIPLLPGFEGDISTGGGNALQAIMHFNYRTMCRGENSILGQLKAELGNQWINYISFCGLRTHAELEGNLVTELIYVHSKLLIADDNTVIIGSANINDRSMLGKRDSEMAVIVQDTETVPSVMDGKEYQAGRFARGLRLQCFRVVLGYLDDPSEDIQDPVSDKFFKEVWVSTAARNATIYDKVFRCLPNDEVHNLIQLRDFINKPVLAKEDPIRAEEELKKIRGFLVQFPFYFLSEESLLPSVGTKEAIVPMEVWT
# [4] = biological target: Phospholipase D2 (Homo sapiens, UniProt O14939); assay: PLD2 purified enzyme concentration response. [Related pubchem assays (depositor defined):AID588854]; type: functional
# [5] = tested on: Candida albicans; assay: growth inhibition of azole-resistant C. albicans, dose response, CaCi-8 strain, Alamar Blue, dry powder, set 2 (AID 488909); type: functional, organism-based
# [6] = tested on: Streptococcus sp. 'group A'; assay: growth inhibition of control SK(-) GAS strain, dose response, counter-screen for streptokinase expression inhibitor project, luminescence, kanamycin, BacTiterGlo, confirmation (AID 1900); type: functional, organism-based
# [7] = biological target: NS3 (Hepatitis C virus, UniProt A3EZJ3); assay: PubChem AID 2173; parameters: species or system Hepacivirus hominis
# [8] = biological target: Induced myeloid leukemia cell differentiation protein Mcl-1 (Homo sapiens, UniProt Q07820); assay: MCL1-BIM BH3 interaction inhibitors, dose response, biochemical, fluorescence polarization, BIM-BH3 peptide, 1536-well (AID 2217)
# [9] = biological target: Bcl-2-like protein 1 (Homo sapiens, UniProt Q07817); assay: BCL-XL inhibitors, dose response, selectivity assay for MCL1 inhibitor project, biochemical, fluorescence polarization, 1536-well (AID 2218)
# [10] = tested on: Streptococcus; assay: Group A Streptococcus viability loss, dose response, counter-screen for streptokinase expression inhibitor project, luminescence, BacTiterGlo (AID 1915); type: functional, organism-based;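 note: potency for reduction of bacterial viability or growth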
# [11] = tested on: Salmon testes DNA; assay: DNA intercalators displacing acridine orange, dose response, artefact control for KSHV LANA DNA-binding inhibitor project, biochemical, fluorescence polarization, cherry-picked samples, set 2 (AID 504727); parameters: species or system Salmonidae
# [12] = biological target: T4, ORF 73 (Human herpesvirus 8, UniProt O40947); assay: inhibitors of C-LANA binding to LBS DNA, dose response, biochemical, fluorescence polarization, cherry-picked samples (AID 504725); parameters: species or system Human gammaherpesvirus 8;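 note: fluorescence polarization of a labeled DNA duplex reporting LANA DNA binding; potency is for inhibitors that block LANA binding to the DNA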
# T4 sequence (O40947 whole entry): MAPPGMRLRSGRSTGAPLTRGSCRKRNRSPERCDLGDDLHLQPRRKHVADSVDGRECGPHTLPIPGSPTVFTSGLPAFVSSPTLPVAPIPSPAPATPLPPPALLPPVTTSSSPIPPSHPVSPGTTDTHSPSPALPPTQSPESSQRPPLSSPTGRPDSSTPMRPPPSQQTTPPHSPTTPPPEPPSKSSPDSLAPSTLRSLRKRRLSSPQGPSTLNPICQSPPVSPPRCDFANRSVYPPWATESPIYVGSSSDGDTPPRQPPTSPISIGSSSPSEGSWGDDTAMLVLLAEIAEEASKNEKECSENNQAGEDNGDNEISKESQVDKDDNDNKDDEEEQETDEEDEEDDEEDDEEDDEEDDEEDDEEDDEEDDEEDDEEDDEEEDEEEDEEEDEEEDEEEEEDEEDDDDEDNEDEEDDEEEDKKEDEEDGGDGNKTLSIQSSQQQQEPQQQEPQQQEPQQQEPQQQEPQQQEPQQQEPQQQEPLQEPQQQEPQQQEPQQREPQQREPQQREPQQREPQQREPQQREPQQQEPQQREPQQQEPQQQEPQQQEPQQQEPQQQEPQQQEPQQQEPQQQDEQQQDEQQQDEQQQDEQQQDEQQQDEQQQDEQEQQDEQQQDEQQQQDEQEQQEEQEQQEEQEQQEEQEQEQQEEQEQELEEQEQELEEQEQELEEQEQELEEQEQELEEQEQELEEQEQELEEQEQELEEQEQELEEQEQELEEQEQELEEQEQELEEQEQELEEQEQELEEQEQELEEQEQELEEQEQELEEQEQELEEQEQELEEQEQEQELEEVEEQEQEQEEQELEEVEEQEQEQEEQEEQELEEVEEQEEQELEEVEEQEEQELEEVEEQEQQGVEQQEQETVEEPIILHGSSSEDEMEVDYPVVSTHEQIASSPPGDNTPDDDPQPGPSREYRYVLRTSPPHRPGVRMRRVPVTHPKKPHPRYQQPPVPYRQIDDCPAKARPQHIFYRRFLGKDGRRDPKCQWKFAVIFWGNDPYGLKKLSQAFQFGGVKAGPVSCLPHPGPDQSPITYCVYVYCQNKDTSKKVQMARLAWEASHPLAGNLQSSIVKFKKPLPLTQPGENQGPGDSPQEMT
# [13] = biological target: T5, Rac GTPase-activating protein 1 (Homo sapiens, UniProt Q9H0H5); assay: MgcRacGAP GTPase-activating activity inhibitors, confirmation, biochemical, ADP Hunter fluorescence, primary and confirmatory (AID 624330); type: functional
# T5 sequence (Q9H0H5 whole entry): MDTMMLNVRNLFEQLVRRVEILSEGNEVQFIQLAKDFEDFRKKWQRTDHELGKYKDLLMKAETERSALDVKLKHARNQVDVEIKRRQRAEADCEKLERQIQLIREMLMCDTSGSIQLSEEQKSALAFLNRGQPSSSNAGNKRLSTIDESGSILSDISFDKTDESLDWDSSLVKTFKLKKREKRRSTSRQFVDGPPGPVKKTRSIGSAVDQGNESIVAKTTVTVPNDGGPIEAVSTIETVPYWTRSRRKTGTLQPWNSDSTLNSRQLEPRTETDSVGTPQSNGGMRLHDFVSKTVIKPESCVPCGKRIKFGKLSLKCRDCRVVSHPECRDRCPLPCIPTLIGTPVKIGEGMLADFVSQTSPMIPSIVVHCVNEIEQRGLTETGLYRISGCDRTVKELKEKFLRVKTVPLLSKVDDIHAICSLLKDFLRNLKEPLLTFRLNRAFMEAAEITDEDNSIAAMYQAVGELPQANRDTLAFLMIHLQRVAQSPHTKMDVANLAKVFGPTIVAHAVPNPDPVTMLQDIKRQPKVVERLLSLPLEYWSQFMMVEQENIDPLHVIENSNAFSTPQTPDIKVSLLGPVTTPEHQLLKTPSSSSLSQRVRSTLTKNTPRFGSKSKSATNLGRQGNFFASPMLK
# [14] = inhibitors of HIV Env-driven cell fusion, dose response, cherry-pick (AID 652057); type: functional, cell-based
# [15] = ZM109 Env clade C HIV-1 fusion inhibitors, dose response, HeLa effector, CEM target cells, luciferase, cherry-pick (AID 652058); type: functional, cell-based
# [16] = off-target signal loss in HeLa-CEM21 co-culture – HeLa F-luc CTL cells, cherry-picked, counter-screen for HIV-1 Env fusion inhibitor project, dose response (AID 652040); type: functional, cell-based;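 note: potency for signal decrease marking cytotoxic or nonspecific inhibition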
# [17] = inhibitors of clade B AD8 Env fusion, dose response, cell-based, cherry-pick (AID 652062); type: functional;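 note: luciferase signal from cell-cell fusion driven by HIV-1 clade B AD8 Env; potency is for inhibitors of fusion seen as a drop in luminescence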
# [18] = THP-1 cell cytotoxicity, dose response, cytotoxicity control for Vif-APOBEC3G degradation inhibitor project, THP-1 cells (AID 1117359); type: functional; conditions: Human immunodeficiency virus 1, THP-1
# [19] = tested on: Escherichia coli; assay: microbe, parasite or virus in culture
# [20] = tested on: Escherichia coli; assay: microbe, parasite or virus in culture; remark: listed apart in the source
# Phospholipase D2, sequence (O14939 whole entry): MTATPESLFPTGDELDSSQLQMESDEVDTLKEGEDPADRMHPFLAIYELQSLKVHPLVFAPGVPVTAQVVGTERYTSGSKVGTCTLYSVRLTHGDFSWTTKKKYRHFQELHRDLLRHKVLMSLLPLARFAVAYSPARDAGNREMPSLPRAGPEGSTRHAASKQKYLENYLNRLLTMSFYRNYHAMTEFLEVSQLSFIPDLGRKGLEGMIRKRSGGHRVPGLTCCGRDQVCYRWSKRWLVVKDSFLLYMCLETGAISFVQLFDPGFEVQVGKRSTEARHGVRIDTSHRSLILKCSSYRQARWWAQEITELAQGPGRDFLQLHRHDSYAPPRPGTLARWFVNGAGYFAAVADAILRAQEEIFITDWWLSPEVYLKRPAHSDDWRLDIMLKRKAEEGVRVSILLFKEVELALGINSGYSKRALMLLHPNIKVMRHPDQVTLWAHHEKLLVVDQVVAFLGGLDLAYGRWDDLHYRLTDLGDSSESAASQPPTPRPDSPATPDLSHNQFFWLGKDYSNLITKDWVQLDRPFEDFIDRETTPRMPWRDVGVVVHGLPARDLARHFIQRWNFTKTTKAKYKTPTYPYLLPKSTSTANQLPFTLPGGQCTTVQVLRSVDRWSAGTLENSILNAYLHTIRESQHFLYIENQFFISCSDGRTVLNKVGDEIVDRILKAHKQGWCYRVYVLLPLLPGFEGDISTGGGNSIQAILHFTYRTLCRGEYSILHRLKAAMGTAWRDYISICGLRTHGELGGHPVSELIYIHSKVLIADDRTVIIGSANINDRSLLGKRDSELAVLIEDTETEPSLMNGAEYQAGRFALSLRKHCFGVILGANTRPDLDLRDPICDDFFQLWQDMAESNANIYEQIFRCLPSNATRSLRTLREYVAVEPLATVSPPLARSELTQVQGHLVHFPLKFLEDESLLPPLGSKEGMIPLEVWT
# Bcl-2-like protein 1, sequence (Q07817 whole entry): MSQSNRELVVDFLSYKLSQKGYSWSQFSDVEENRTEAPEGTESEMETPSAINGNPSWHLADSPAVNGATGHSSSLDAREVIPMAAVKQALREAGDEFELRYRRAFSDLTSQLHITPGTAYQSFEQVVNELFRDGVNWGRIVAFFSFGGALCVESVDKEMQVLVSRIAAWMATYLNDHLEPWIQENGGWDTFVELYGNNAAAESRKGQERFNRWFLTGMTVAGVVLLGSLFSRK
# NS3, sequence (A3EZJ3 whole entry): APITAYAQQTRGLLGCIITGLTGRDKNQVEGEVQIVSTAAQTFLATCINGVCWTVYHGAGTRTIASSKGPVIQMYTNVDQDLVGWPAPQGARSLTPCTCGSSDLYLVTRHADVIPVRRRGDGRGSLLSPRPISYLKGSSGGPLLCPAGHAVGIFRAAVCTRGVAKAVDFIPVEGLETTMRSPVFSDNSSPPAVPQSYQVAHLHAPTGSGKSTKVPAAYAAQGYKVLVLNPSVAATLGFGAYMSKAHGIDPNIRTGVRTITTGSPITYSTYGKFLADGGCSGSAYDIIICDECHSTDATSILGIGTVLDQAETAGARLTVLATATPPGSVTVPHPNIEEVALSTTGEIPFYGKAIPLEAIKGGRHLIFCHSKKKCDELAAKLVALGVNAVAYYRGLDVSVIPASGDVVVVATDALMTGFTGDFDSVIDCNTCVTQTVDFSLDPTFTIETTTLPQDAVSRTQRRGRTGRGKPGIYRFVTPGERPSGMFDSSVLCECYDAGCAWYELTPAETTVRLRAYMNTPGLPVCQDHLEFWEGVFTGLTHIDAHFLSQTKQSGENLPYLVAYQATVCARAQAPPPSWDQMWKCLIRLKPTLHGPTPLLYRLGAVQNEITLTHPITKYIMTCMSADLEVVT
# Induced myeloid leukemia cell differentiation protein Mcl-1, sequence (Q07820 whole entry): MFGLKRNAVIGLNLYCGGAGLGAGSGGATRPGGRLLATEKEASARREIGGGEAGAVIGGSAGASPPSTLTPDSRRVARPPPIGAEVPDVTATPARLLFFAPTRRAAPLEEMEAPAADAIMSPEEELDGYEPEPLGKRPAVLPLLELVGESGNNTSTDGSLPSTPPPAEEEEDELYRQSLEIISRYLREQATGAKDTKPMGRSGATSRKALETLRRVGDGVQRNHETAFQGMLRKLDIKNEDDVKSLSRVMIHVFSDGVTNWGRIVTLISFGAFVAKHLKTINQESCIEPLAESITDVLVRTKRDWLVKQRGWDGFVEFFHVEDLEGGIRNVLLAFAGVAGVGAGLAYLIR
compound,measurement,setting,value
COc1cc2c(cc1OC)-c1cc(NCc3ccc(F)cc3)nc(=O)n1CC2,IC50,[1],> 80 µM (inactive)
same,IC50,[2],> 80 µM (inactive)
COc1cc(C(=O)NCCN2CCC3(CC2)C(=O)NCN3c2ccccc2)ccc1N,IC50,[3],1.08 µM (active)
same,IC50,[4],0.17 µM (active)
COc1cccc2c(N3CCN(C(=O)c4ccc(Cl)cc4)CC3)cc(C)nc12,AC50,[5],> 260 µM (inactive)
CN(C)c1ccc(O)c2c1CC1CC3[C@@H](N(C)C)C(O)=C(C(N)=O)C(=O)[C@]3(O)C(O)=C1C2=O (stereo not given in full),EC50,[6],0.079 µM (active)
same,IC50,[7],> 109 µM (not active)
same,IC50,[8],9.39 µM (active)
same,IC50,[9],> 109 µM (not active)
same,EC50,[10],0.173 µM (active)
same,AC50,[11],46.2 µM (active)
same,AC50,[12],25.6 µM (active)
same,IC50,[13],120 µM (active)
same,AC50,[14],< 0.26 µM (active)
same,AC50,[15],< 0.26 µM (active)
same,AC50,[16],< 0.26 µM (active)
same,AC50,[17],< 0.26 µM (active)
same,CC50,[18],> 40 µM (active)
same,AC50,[19],11.2 µM (active)
same,AC50,[20],1.06 µM (active)
